Reference: the supplement of paper PMC11208160

Assay: recombinant barcode read abundance after kanamycin selection (control-corrected) (log10(CPM+1)); higher = more efficient recombination; sequences stand for … in AGTGCAGAGAAAATCGGCCAGTTTTCTCTGCCTGCAGTCCGCATGCCGT…AGATTTATGCAGCGGACTGCCTTTCTCCCAAAGTGATAAACCGGACAGTATCATGGACCGGTTTTCCCGGTAATCCGTATTTGCAAGGTTGGTTTCACT; site = the 11-nt target
Outline: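 A vector carrying a T7-inducible recombinase and the last 73 bp of the bridge RNA received, by Gibson cloning, oligos encoding a promoter, target, barcode and the first 104 bridge RNA bases under J23119. The pooled constructs entered E. coli together with a donor plasmid by electroporation. Selection used chloramphenicol/ampicillin/kanamycin with 0.1 mM IPTG, with chloramphenicol/ampicillin LB agar as the control, each in two replicates. Recombination efficiency is the averaged, control-corrected counts-per-million of barcodes at recombinant junctions, reported as log10(CPM+1).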
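Further: IS621 recombinase and bridge RNA in Escherichia coli cells.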

Sequence | recombinant barcode read abundance (log10)
ATCCAGCCTTGGGTTCTAACCTGTTGCCT (site ATCCAACCTAG) | 1.16
ATCCAGCCTTGGGTTCTAACCTGTTGCCT (site ATCCACCCTAG) | 0.0824
ATCCAGCCTTGGGTTCTAACCTGTTGCCT (site ATCCAGCCTAG) | 1.7
ATCCAGCCTTGGGTTCTAACCTGTTGCCT (site ATCCATCCTAG) | 0.0724
ATCCCACCTTGGGTTCTAACCTGTTGCGG (site ATACTACCTCC) | 0.0321
ATCCCACCTTGGGTTCTAACCTGTTGCGG (site ATCCCACCTCC) | 1.89
ATCCTAGCTTGGGTTCTAACCTGTTGCCG (site ATCCTAGCTCG) | 1.58
ATCCTAGCTTGGGTTCTAACCTGTTGCCG (site TTCCTAGCTTG) | 0.299
ATCGCTCCTTGGGTTCTAACCTGTTGCCT (site AACGCTCCTAG) | 0.128
ATCGCTCCTTGGGTTCTAACCTGTTGCCT (site ACCGCTCCTAG) | 0.115
ATCGCTCCTTGGGTTCTAACCTGTTGCCT (site AGCGCTCCTAG) | 0.122
ATCGCTCCTTGGGTTCTAACCTGTTGCCT (site ATCGCTCCTAG) | 2.12
ATCGGATCTTGGGTTCTAACCTGTTGCCT (site ATCGGAACTAG) | 0.195
ATCGGATCTTGGGTTCTAACCTGTTGCCT (site ATCGGACCTAG) | 0.0656
ATCGGATCTTGGGTTCTAACCTGTTGCCT (site ATCGGAGCTAG) | 0.232
ATCGGATCTTGGGTTCTAACCTGTTGCCT (site ATCGGATCTAG) | 0.678
ATCGGCCCTTGGGTTCTAACCTGTTGCTG (site ATCGGCCCTCA) | 2.07
ATCGGCCCTTGGGTTCTAACCTGTTGCTG (site GTGGGCCCTCA) | 0.0497

Sequence | recombinant barcode read abundance (log10)
ATCTAAACTTGGGTTCTAACCTGTTGCCT (site ATCTAAACTAG) | 0.842
ATCTAAACTTGGGTTCTAACCTGTTGCCT (site CGAGTCCCTCT) | 0.105
ATCTACTCTTGGGTTCTAACCTGTTGCCT (site ATATACTCTCG) | 0.382
ATCTACTCTTGGGTTCTAACCTGTTGCCT (site ATCTACTCTAG) | 1.56
ATCTATACTTGGGTTCTAACCTGTTGCCT (site ATCTATACTAG) | 0.821
ATCTATACTTGGGTTCTAACCTGTTGCCT (site GGACGAGCTCA) | 0.0107
ATCTATCCTTGGGTTCTAACCTGTTGCAT (site ACCTAACCTAT) | 0.179
ATCTATCCTTGGGTTCTAACCTGTTGCAT (site ATCTATCCTAT) | 0.198
ATCTATTCTTGGGTTCTAACCTGTTGCCT (site ATCGATGCTAG) | 0.198
ATCTATTCTTGGGTTCTAACCTGTTGCCT (site ATCTATTCTAG) | 0.111
ATGAACACTTGGGTTCTAACCTGTTGCTG (site ATGAACACTCA) | 1.95
ATGAACACTTGGGTTCTAACCTGTTGCTG (site TAATGGCCTTC) | 0.0343
ATGAGAGCTTGGGTTCTAACCTGTTGCCT (site ATAAGACCTAG) | 0.324
ATGAGAGCTTGGGTTCTAACCTGTTGCCT (site ATGAGAGCTAG) | 1.05
ATGAGGACTTGGGTTCTAACCTGTTGCCT (site ATGAGGACTAG) | 1.84
ATGAGGACTTGGGTTCTAACCTGTTGCCT (site CTGAGGACTAG) | 0.362
ATGAGGACTTGGGTTCTAACCTGTTGCCT (site GTGAGGACTAG) | 0.12
ATGAGGACTTGGGTTCTAACCTGTTGCCT (site TTGAGGACTAG) | 0.246
